From patent EP0974360A2, “Pharmaceutical preparations for use in combatting or preventing surface infections caused by microorganisms” (N.V. Nutricia, priority 1998, dated 2000)

Assays:
[1] = system: C. glabrata Y110; experiment: Synergy experiments (8 by 8 dilution matrix, growth by UV turbidity at 630 nm); type: cell-based; settings: for UV (Candida growth, 630 nm): 24 hours
[2] = system: C. glabrata Y110; experiment: MIC and growth inhibition at several pH's in SLM or RPMI medium; type: cell-based; settings: figures 5 and 6

Row | SMILES | decline of effective concentration as compared to its MIC value ([1]; 0.0008 µg/ml 5-fluorocytosine with 0.02 mg/ml lactoferrin) [times] | effect of an increase in pH of the medium on inhibition [2] | UV (Candida growth, 630 nm) ([1]; Fluconazole 0.2 mg/ml alone) | UV (Candida growth, 630 nm) ([1]; Fluconazole 0.33 mg/ml alone) | UV (Candida growth, 630 nm) ([1]; Fluconazole 0.5 mg/ml alone)
1 | Nc1nc(=O)[nH]cc1F [5-Fluorocytosine, 5-fluorocytosine] | 30 | – | – | – | –
2 | OC(Cn1cncn1)(Cn1cncn1)c1ccc(F)cc1F [Fluconazole, fluconazole] | – | more efficient inhibition | 0.003 | 0.003 | 0.004
